ChEMBL document CHEMBL5634142, “Novel thienopyrimidones targeting hepatic and erythrocytic stages of Plasmodium parasites with increased microsomal stability” (Eur J Med Chem, 2023)

What was measured:
[1] = Effective permeability of compound at pH 7.4 incubated for 4 hrs by PAMPA-GIT assay; assay type: ADME; details: read-out: Peff
[2] = molecular target: Voltage-gated inwardly rectifying potassium channel KCNH2 (Homo sapiens, UniProt Q12809); experiment: Inhibition of hERG incubated for 4 hrs by fluorescence polarization assay; assay type: toxicity
Voltage-gated inwardly rectifying potassium channel KCNH2, sequence (Q12809 whole entry): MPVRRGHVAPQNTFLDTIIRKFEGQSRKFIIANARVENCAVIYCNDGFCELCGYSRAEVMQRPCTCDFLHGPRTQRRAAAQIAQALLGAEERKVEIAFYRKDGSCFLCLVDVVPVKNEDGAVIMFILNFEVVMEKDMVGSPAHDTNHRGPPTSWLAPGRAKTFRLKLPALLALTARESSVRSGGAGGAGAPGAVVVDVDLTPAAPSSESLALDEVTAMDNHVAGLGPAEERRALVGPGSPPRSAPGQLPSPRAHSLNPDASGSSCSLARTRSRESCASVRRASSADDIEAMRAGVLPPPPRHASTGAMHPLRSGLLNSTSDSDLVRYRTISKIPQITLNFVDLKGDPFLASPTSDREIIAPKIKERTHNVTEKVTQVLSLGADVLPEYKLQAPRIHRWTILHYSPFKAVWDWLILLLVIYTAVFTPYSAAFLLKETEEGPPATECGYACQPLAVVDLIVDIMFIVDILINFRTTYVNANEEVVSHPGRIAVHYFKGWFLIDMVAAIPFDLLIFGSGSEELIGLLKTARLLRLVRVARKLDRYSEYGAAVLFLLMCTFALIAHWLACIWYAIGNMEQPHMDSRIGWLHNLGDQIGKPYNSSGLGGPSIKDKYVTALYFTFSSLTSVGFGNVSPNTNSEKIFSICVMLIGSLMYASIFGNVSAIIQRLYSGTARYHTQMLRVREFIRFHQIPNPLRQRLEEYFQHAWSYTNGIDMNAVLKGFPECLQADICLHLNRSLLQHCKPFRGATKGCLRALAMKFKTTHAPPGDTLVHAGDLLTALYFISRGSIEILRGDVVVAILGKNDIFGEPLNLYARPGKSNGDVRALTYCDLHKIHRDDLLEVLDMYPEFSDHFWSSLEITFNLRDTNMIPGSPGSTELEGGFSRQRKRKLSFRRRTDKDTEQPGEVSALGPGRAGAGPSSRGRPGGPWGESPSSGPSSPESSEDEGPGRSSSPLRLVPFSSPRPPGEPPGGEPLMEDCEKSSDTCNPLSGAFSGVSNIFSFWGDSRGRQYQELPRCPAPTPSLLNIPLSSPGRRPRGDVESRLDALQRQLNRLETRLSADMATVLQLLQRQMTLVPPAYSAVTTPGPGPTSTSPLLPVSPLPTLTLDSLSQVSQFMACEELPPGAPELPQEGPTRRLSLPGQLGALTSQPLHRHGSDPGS

[3] = Effective permeability of compound at pH 5 incubated for 4 hrs by PAMPA-GIT assay; assay type: ADME; details: read-out: Peff
[4] = Chromatographic hydrophobicity index, log D of the compound at pH 7.4 by HPLC analysis; assay type: physicochemical; details: buffer
[5] = Solubility of compound in PBS at 1 mg incubated for 10 mins by HPLC analysis; assay type: physicochemical
Plasmodium falciparum = experiment: Antiplasmodial activity against erythrocytic stage of chloroquine, pyrimethamine and sulfadoxine resistant Plasmodium falciparum K1 infected in human erythrocytes assessed as reduction in parasite growth incubated for 72 hrs by SYBR green I fluorescence based spectrophotometric analysis; assay type: functional, organism-based; details: K1, Erythrocyte
[6] = Cytotoxicity against human HepG2 cells assessed as reduction in cell viability incubated for 72 hrs by MTT assay; assay type: toxicity, cell-based
[7] = Selectivity index, ratio of CC50 for cytotoxicity against human HepG2 cells to EC50 for antiplasmodial activity against erythrocytic stage of chloroquine, pyrimethamine and sulfadoxine resistant Plasmodium falciparum K1 infected in human erythrocytes; assay type: toxicity, cell-based; details: read-out: Ratio CC50/EC50
Plasmodium berghei = experiment: Antiplasmodial activity against hepatic stage of Plasmodium berghei ANKA sporozoites infected in Cynomolgous monkey hepatocytes harboring Simian virus assessed as reduction in parasite growth administered for 3 hrs followed by replacement with fresh medium containing compound for every 24 hrs by DAPI staining based analysis; assay type: functional, organism-based; details: Hepatocyte
[8] = Cytotoxicity against Cynomolgous monkey hepatocytes harboring Simian virus assessed as reduction in cell viability administered for 3 hrs followed by replacement with fresh medium containing compound for every 24 hrs by DAPI staining based analysis; assay type: toxicity, Macaca fascicularis, Hepatocyte; details: cynomolgus monkey
[9] = Stability in CD-1 mouse microsomes assessed as half-life in presence of NADP; assay type: ADME, Microsome
[10] = Stability in CD-1 mouse microsomes assessed as intrinsic clearance measured upto 40 mins in presence of NADP; assay type: ADME, Microsome
[11] = Solubility of compound in DMSO; assay type: physicochemical

Structure (SMILES): Cc1ccc(-c2cc3nc(NC4CCC4)[nH]c(=O)c3s2)cc1.Cl
- Papp at 4 h [1]: 4.36 ×10⁻⁶ cm/s
- IC50 [2]: > 100 µM
- Papp at 4 h [3]: 18.1 ×10⁻⁶ cm/s
- chromatographic logD [4]: 3.16
- solubility at 10 min [5]: 1.4 µM

Structure (SMILES): Cc1ccc(-c2cc3nc(NC(C)(C)C)n(-c4ccccc4)c(=O)c3s2)cc1
- EC50 (Plasmodium falciparum): > 12.5 µM
- CC50 at 72 h [6]: > 3.1 µM

Structure (SMILES): Cc1ccc(-c2cc3nc(N4CCN(C)CC4)[nH]c(=O)c3s2)cc1
- EC50 (Plasmodium falciparum): > 25 µM
- CC50 at 72 h [6]: 8.7 µM
- selectivity ratio [7]: < 0.3

Structure (SMILES): Cc1ccc(-c2cc3nc(N4CCCC4)[nH]c(=O)c3s2)cc1
- EC50 (Plasmodium falciparum): 1.4 µM
- EC50 (Plasmodium berghei): > 100 µM
- CC50 at 3 h [8]: > 200 µM
- CC50 at 72 h [6]: > 3.1 µM
- selectivity ratio [7]: > 2.1

Structure (SMILES): Cc1ccc(-c2cc3nc(NC(C)(C)C)n(C(C)C)c(=O)c3s2)cc1
- EC50 (Plasmodium falciparum): 4.2 µM
- CC50 at 72 h [6]: > 3.9 µM
- selectivity ratio [7]: > 0.9

Structure (SMILES): Cc1ccc(-c2cc3nc(N)n(C)c(=O)c3s2)cc1
- EC50 (Plasmodium falciparum): > 25 µM
- CC50 at 72 h [6]: > 6.2 µM

Structure (SMILES): Cc1ccc(-c2cc3nc(N[C@H]4CCNC4)[nH]c(=O)c3s2)cc1
- EC50 (Plasmodium falciparum): > 31.2 µM
- CC50 at 72 h [6]: 13.2 µM
- selectivity ratio [7]: < 0.4

Structure (SMILES): Cc1ccc(-c2cc3nc(NC4CCC4)[nH]c(=O)c3s2)cc1
- half-life [9]: 29 min
- EC50 (Plasmodium falciparum): 1.1 µM
- microsomal CLint [10]: 78 µL/min/mg
- EC50 (Plasmodium berghei): 11.2 µM
- CC50 at 3 h [8]: > 100 µM
- CC50 at 72 h [6]: 14 µM
- selectivity ratio [7]: 12.7

Structure (SMILES): Cc1ccc(-c2cc3nc(N4CCCCC4)[nH]c(=O)c3s2)cc1
- EC50 (Plasmodium falciparum): > 25 µM
- CC50 at 72 h [6]: > 3.1 µM

Structure (SMILES): Cc1ccc(-c2cc3nc(NC(C)C)[nH]c(=O)c3s2)cc1
- half-life [9]: 11 min
- microsomal CLint [10]: 214 µL/min/mg
- EC50 (Plasmodium berghei): 55.6 µM
- CC50 at 3 h [8]: > 200 µM

Structure (SMILES): Cc1ccc(-c2cc3nc(NC4CCCC4)[nH]c(=O)c3s2)cc1
- half-life [9]: 38 min
- EC50 (Plasmodium falciparum): 1.4 µM
- microsomal CLint [10]: 58 µL/min/mg
- EC50 (Plasmodium berghei): 10.5 µM
- CC50 at 3 h [8]: > 100 µM
- CC50 at 72 h [6]: > 7.8 µM
- selectivity ratio [7]: > 5.6

Structure (SMILES): Cc1ccc(-c2cc3nc(N)n(CCCN(C)C)c(=O)c3s2)cc1
- EC50 (Plasmodium falciparum): 9.8 µM
- CC50 at 72 h [6]: 4.1 µM
- selectivity ratio [7]: 0.42

Structure (SMILES): Cc1ccc(-c2cc3nc(N4CCOCC4)[nH]c(=O)c3s2)cc1
- EC50 (Plasmodium falciparum): > 10 µM
- CC50 at 72 h [6]: 3.6 µM
- selectivity ratio [7]: < 0.4

Structure (SMILES): [2H]C([2H])([2H])C(Nc1nc2cc(-c3ccc(C)cc3)sc2c(=O)[nH]1)(C([2H])([2H])[2H])C([2H])([2H])[2H]
- half-life [9]: 8.5 min
- EC50 (Plasmodium falciparum): 0.1 µM
- microsomal CLint [10]: 209 µL/min/mg
- EC50 (Plasmodium berghei): 13.7 µM
- CC50 at 3 h [8]: > 100 µM
- CC50 at 72 h [6]: 17.9 µM
- selectivity ratio [7]: 149

Structure (SMILES): Cc1ccc(-c2cc3nc(N4CCC4)[nH]c(=O)c3s2)cc1
- solubility [11]: Insoluble

Structure (SMILES): CCn1c(NC(C)(C)C)nc2cc(-c3ccc(C)cc3)sc2c1=O
- EC50 (Plasmodium falciparum): > 12.5 µM
- CC50 at 72 h [6]: 5.8 µM
- selectivity ratio [7]: 1.4

Structure (SMILES): Cc1ccc(-c2cc3nc(NC4CC4)[nH]c(=O)c3s2)cc1
- half-life [9]: 15 min
- EC50 (Plasmodium falciparum): 0.9 µM
- microsomal CLint [10]: 136 µL/min/mg
- EC50 (Plasmodium berghei): 5.5 µM
- CC50 at 3 h [8]: > 100 µM
- CC50 at 72 h [6]: 4 µM
- selectivity ratio [7]: 4.4

Structure (SMILES): Cc1ccc(-c2cc3nc(NC(C)(C)C(F)(F)F)[nH]c(=O)c3s2)cc1
- EC50 (Plasmodium falciparum): > 10 µM
- CC50 at 72 h [6]: 23.9 µM
- selectivity ratio [7]: > 10

Structure (SMILES): C[C@H]1c2cccc(O)c2C(=O)C2=C(O)[C@]3(O)C(=O)C(C(N)=O)=C(O)[C@@H](N(C)C)[C@@H]3[C@@H](O)[C@@H]21 [DOXYCYCLINE ANHYDROUS]
- selectivity ratio [7]: 4

Structure (SMILES): Cc1ccc(-c2cc3nc(C(C)(C)C)[nH]c(=O)c3s2)cc1
- IC50 [2]: > 100 µM

Structure (SMILES): [2H]C([2H])([2H])C(Nc1nc2cc(-c3ccc(C)cc3)sc2c(=O)[nH]1)C([2H])([2H])[2H]
- half-life [9]: 11 min
- EC50 (Plasmodium falciparum): 0.2 µM
- microsomal CLint [10]: 214 µL/min/mg
- EC50 (Plasmodium berghei): 15.9 µM
- CC50 at 3 h [8]: > 100 µM
- CC50 at 72 h [6]: > 10 µM
- selectivity ratio [7]: > 50

Structure (SMILES): Cc1ccc(-c2cc3nc(NC4CCCCC4)[nH]c(=O)c3s2)cc1
- EC50 (Plasmodium falciparum): > 12.5 µM
- CC50 at 72 h [6]: > 12.5 µM

Structure (SMILES): COc1cc(NC(C)CCCN)c2ncccc2c1 (stereo not drawn) [PRIMAQUINE]
- EC50 (Plasmodium berghei): 7.26 µM
- CC50 at 3 h [8]: > 50 µM
